According to ChEMBL document CHEMBL1201862, “PubChem BioAssay data set” (2004):
Calls of active or inactive are those of the source.

How the values were obtained:
[1] = luciferase reporter signal suppression in cells – H4 neuroglioma cells, luminescence, dose response (AID 1990); format: functional, cell-based
[2] = luciferase reporter signal reduction – luminescence, H4-C neuroglioblastoma cells, dose response (AID 2458); format: functional, cell-based;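 further: H4 neuroglioblastoma cells stably carrying a luciferase reporter gene fusion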
[3] = cells; format: functional, cell-based
[4] = Luminescence Cell-Based Dose Response HTS to Identify Inhibitors of 5'UTR Stem-Loop Driven Prion Protein mRNA Translation in H4 Neuroglioblastoma Cells. [Related pubchem assays: 1827 (Project Summary), 1813 (Primary HTS)]; format: functional
[5] = alpha-synuclein stem-loop luciferase translation blockers – H4 neuroglioma cells, luminescence, confirmation (AID 1988); format: functional, cell-based
[6] = Trypanosoma cruzi growth suppression in host cells – NIH3T3 host cells, beta-gal luminescence, confirmation (AID 2044); format: functional, cell-based;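 further: intracellular parasites grown in NIH/3T3 mouse fibroblasts as host cells; luminescent beta-galactosidase reporter signal from transgenic T. cruzi replicating inside host cells; inhibitors lower the luminescence signal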
[7] = NIH3T3 cell viability loss – ATP luminescence, mouse fibroblasts, counter-screen, dose response (AID 2010); format: functional, cell-based;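 further: cells exposed to compound for about 90 hours before reading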
[8] = alpha-synuclein stem-loop translation blockers – luminescence, H4 neuroglioblastoma cells, dose confirmation, confirmation (AID 2454); format: functional, cell-based;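 further: H4 neuroglioblastoma cells carrying an alpha-synuclein 5'UTR luciferase reporter; potency for inhibition of the luciferase signal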
[9] = molecular target: Paired box protein Pax-8 (Homo sapiens, UniProt Q06710); test: PAX8 transcriptional activity inhibition in RMG-I – RMG-I cells, luciferase, cherry-pick, dose response (AID 687027); format: functional, cell-based;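 further: luciferase reporter driven by Pax8 target thyroperoxidase promoter measured by SteadyGlo luminescence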
Chain of Paired box protein Pax-8 (Q06710 whole entry): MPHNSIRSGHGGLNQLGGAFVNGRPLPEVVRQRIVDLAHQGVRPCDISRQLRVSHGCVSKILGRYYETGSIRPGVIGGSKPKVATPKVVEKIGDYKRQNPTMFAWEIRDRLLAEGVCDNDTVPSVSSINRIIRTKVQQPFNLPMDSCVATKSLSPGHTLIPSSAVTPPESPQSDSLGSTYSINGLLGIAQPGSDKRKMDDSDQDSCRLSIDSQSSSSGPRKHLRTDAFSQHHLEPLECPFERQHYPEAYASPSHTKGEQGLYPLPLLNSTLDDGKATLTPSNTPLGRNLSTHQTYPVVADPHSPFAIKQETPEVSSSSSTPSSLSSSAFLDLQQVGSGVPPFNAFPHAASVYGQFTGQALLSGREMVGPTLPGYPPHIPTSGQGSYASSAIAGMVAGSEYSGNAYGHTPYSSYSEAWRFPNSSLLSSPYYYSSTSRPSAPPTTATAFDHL

[10] = molecular target: T1, Alkaline phosphatase, tissue-nonspecific isozyme (Homo sapiens, UniProt P05186)
T1 sequence (P05186 whole entry): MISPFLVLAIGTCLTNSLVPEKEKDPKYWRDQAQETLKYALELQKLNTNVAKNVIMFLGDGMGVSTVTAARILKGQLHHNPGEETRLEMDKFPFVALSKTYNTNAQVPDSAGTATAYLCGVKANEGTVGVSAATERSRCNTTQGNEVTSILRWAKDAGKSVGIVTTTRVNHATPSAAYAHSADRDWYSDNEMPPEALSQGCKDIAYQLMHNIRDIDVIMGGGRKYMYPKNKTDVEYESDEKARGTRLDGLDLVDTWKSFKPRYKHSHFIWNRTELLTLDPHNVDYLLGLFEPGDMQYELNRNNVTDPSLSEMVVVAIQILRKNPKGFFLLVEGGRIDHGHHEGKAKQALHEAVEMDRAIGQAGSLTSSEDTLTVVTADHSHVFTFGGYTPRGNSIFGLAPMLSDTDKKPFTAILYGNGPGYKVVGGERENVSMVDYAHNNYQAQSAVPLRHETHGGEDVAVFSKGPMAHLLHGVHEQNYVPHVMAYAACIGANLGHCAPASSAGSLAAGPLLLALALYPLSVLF

[11] = molecular target: Photoreceptor-specific nuclear receptor (Homo sapiens, UniProt Q9Y5X4); format: functional;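 further: potency for compounds that break the NR2E3 corepressor complex and count as activators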
Chain of Photoreceptor-specific nuclear receptor (Q9Y5X4 whole entry): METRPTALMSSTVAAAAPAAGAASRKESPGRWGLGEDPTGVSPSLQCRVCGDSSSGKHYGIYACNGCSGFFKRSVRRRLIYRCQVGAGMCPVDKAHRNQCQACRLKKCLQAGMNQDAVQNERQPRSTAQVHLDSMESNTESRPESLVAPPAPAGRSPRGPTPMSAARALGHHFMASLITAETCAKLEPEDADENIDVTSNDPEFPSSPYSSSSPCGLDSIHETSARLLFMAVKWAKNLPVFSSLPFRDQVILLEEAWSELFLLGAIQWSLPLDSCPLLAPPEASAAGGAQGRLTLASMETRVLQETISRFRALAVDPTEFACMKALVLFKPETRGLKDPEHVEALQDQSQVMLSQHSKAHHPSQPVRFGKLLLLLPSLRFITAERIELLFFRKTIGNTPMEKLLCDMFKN

[12] = molecular target: Peroxisome proliferator-activated receptor gamma/Nuclear receptor corepressor 2 (Homo sapiens, UniProt P37231+Q9Y618); format: functional
[13] = molecular target: Cytochrome P450 2C19 (Homo sapiens, UniProt P33261); test: Cytochrome panel assay with activity outcomes. Panel member name: p450-cyp2c19 Compounds with AC50 equal or less than 10 uM are considered active; format: functional; conditions: read-out: AC50
Chain of Cytochrome P450 2C19 (P33261 whole entry): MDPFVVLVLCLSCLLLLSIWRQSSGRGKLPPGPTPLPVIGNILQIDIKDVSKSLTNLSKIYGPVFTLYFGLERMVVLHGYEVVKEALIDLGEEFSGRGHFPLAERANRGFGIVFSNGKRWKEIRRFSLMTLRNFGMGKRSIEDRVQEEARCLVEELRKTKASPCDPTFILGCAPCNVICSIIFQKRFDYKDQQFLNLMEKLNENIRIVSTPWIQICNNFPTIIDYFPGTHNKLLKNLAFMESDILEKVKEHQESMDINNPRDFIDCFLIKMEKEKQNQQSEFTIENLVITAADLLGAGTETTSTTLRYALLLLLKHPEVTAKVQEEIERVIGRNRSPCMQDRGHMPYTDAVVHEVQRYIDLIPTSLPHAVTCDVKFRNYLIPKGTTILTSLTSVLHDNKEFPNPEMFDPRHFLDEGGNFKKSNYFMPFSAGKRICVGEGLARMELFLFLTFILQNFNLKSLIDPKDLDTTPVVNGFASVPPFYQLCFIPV

[14] = molecular target: Major prion protein (Homo sapiens, UniProt P04156); format: functional, cell-based
[15] = cells
[16] = molecular target: T2, Delta-type opioid receptor (Homo sapiens, UniProt P41143); test: HTS Image-Based Screen for Antagonists of the DOR Receptor. [Related pubchem assays (depositor defined):AID1777, AID1785, AID1786, AID2133]; format: functional
T2 sequence (P41143 whole entry): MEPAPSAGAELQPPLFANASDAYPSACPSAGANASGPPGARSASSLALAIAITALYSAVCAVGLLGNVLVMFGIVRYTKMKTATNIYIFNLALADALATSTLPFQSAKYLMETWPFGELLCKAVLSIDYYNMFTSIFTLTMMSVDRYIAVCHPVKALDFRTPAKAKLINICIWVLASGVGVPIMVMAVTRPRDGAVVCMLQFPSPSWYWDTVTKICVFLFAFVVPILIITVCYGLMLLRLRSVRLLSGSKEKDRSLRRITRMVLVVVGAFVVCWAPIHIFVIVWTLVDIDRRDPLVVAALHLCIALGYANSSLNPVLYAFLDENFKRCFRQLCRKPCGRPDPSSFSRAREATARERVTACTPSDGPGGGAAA

[17] = molecular target: Mu-type opioid receptor (Homo sapiens, UniProt P35372); test: HTS Image-Based Screen for Agonists of the MOR Receptor. [Related pubchem assays (depositor defined):AID1777, AID1785, AID1786, AID2133]; format: functional;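 further: imaging of beta-arrestin GFP recruitment into spots after receptor activation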
Chain of Mu-type opioid receptor (P35372 whole entry): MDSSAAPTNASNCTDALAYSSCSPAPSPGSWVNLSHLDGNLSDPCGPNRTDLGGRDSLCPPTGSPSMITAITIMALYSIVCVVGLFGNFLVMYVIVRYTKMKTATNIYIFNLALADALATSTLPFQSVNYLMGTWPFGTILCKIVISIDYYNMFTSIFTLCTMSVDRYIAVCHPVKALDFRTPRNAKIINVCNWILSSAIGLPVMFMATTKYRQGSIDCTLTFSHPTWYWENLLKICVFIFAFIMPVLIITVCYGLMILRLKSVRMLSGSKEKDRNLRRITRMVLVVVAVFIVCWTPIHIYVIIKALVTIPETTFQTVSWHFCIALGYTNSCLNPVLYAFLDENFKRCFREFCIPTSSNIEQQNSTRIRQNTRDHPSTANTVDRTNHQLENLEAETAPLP

[18] = molecular target: Peroxisome proliferator-activated receptor gamma/Nuclear receptor coactivator 1 (Homo sapiens, UniProt P37231); test: (§1) TR-FRET dose response biochemical High Throughput Screening assay for agonists of the steroid receptor coactivator 1 (SRC-1) recruitment by the peroxisome proliferator-activated receptor gamma (PPAR gamma): non-selective agonists. [Related pubchem assays (depositor defined):AID1300, AID1808, AID504735, AID631]; format: protein assay
[19] = molecular target: T2, Delta-type opioid receptor; test: HTS Image-Based Screen for Agonists of the DOR Receptor. [Related pubchem assays (depositor defined):AID1777, AID1786, AID2133]; format: functional
[20] = molecular target: Peroxisome proliferator-activated receptor gamma/Nuclear receptor coactivator 3 (Homo sapiens, UniProt P37231); test: as §1, with “3 (SRC-3)” for “1 (SRC-1)”, “assays: 1301 (Confirmation screen.), 1048 (Primary screen.)]” for “assays (depositor defined):AID1300, AID1808, AID504735, AID631]”; format: functional
[21] = molecular target: G-protein coupled receptor 55 (Homo sapiens, UniProt Q9Y2T6); test: inhibition of LPI-stimulated GPR55 beta-arrestin translocation – imaging, U2OS, beta-arrestin-GFP, LPI agonist, primary screen (AID 2013); format: functional;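 further: antagonist potency measured as reduced agonist-driven arrestin aggregation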
Chain of G-protein coupled receptor 55 (Q9Y2T6 whole entry): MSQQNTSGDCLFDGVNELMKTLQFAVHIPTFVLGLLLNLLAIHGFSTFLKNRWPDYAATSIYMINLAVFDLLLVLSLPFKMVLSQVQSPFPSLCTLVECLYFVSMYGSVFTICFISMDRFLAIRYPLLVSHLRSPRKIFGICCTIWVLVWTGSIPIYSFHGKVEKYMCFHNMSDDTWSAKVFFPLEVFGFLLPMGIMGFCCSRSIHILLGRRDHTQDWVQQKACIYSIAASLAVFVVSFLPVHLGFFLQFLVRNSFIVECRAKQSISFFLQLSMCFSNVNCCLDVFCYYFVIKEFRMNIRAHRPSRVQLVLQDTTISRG

[22] = microbe, parasite or virus in culture; format: functional; conditions: Mycobacterium tuberculosis
[23] = molecular target: T3, Kappa-type opioid receptor (Homo sapiens, UniProt P41145); format: functional
T3 sequence (P41145 whole entry): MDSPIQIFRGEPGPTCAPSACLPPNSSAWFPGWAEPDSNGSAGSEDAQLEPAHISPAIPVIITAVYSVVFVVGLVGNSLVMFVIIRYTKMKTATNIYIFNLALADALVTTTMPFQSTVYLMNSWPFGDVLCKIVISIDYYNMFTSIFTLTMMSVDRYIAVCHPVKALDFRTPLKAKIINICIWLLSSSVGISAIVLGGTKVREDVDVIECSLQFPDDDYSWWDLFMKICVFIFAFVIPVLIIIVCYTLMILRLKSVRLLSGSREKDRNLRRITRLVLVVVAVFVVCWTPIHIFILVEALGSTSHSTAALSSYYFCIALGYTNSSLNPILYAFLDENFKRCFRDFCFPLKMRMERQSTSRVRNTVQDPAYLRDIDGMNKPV

[24] = molecular target: Peroxisome proliferator-activated receptor gamma/Nuclear receptor coactivator 2 (Homo sapiens, UniProt P37231); test: TR-FRET dose response biochemical High Throughput Screening assay for agonists of the steroid receptor coactivator 2 (SRC-2) recruitment by the peroxisome proliferator-activated receptor gamma (PPAR gamma): non-selective agonists. [Related pubchem assays: 1297, 1032 ]; format: functional
[25] = molecular target: Beta-galactosidase (Escherichia coli, UniProt Q8VNN2); format: functional
Chain of Beta-galactosidase (Q8VNN2 whole entry): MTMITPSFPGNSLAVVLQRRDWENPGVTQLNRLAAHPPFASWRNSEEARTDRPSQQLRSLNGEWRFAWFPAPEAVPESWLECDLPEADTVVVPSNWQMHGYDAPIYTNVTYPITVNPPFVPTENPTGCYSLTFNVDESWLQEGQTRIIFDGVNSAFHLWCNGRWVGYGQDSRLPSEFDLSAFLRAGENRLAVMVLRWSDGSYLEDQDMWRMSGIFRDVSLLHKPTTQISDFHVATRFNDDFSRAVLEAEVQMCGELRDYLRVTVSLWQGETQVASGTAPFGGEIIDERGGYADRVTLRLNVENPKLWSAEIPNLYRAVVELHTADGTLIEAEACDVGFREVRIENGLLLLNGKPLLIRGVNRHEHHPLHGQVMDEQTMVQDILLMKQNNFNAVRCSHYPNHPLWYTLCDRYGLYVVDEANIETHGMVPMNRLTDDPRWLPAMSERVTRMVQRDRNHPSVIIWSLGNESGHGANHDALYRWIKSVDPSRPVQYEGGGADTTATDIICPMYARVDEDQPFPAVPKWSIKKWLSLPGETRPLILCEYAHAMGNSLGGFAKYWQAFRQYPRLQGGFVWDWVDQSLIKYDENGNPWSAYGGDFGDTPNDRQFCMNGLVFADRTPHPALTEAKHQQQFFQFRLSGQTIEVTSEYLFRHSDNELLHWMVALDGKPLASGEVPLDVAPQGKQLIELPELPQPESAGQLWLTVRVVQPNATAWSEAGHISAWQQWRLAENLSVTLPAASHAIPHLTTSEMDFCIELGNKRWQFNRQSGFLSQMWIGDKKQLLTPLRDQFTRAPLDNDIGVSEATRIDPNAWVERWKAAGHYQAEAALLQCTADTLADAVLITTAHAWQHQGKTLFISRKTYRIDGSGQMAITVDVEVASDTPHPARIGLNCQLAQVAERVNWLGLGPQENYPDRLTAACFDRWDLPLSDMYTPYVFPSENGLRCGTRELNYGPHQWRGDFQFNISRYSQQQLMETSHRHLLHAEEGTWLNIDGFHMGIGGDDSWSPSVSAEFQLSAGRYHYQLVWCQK

[26] = molecular target: Sphingosine 1-phosphate receptor 4 (Homo sapiens, UniProt O95977); test: Fluorescence dose response cell-based high throughput screening assay for antagonists of the Sphingosine 1-Phosphate Receptor 4 (S1P4). [Related pubchem assays: 1524 (Confirmation in triplicates.), 1510 (Primary screen.)]; format: functional
Chain of Sphingosine 1-phosphate receptor 4 (O95977 whole entry): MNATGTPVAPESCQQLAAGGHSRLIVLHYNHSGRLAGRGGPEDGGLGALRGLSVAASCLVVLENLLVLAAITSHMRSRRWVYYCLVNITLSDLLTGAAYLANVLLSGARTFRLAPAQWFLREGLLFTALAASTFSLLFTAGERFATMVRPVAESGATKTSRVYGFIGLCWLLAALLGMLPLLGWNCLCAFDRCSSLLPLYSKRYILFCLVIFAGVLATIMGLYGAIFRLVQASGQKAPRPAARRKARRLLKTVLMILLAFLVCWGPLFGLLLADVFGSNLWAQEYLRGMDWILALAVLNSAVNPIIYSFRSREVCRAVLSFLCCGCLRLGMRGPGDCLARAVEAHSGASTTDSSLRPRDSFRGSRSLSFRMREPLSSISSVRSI

[27] = molecular target: T3, Kappa-type opioid receptor; format: functional; remark: listed apart in the source
[28] = molecular target: Sphingosine 1-phosphate receptor 1 (Homo sapiens, UniProt P21453); format: functional;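 further: Tango beta-arrestin reporter U2OS cells stimulated with S1P near its EC80; inhibitor potency meaning antagonism of receptor activation by the natural agonist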
Chain of Sphingosine 1-phosphate receptor 1 (P21453 whole entry): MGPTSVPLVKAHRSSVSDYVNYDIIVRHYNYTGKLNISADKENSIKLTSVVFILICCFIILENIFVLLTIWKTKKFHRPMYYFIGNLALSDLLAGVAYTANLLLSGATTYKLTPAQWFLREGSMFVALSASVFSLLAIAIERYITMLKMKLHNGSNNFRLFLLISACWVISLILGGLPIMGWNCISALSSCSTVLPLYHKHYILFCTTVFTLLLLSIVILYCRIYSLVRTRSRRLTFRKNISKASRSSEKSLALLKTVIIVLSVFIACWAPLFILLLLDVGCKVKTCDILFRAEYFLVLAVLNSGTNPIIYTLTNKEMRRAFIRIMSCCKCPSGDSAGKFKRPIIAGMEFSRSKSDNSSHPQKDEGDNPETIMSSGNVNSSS

[29] = molecular target: T4, Replicative DNA helicase DnaB (Mycobacterium tuberculosis, UniProt P9WMR3); test: DnaB intein splicing inhibitors, dose response, biochemical, cell-free fluorescence (AID 449749); format: functional
T4 sequence (P9WMR3 whole entry): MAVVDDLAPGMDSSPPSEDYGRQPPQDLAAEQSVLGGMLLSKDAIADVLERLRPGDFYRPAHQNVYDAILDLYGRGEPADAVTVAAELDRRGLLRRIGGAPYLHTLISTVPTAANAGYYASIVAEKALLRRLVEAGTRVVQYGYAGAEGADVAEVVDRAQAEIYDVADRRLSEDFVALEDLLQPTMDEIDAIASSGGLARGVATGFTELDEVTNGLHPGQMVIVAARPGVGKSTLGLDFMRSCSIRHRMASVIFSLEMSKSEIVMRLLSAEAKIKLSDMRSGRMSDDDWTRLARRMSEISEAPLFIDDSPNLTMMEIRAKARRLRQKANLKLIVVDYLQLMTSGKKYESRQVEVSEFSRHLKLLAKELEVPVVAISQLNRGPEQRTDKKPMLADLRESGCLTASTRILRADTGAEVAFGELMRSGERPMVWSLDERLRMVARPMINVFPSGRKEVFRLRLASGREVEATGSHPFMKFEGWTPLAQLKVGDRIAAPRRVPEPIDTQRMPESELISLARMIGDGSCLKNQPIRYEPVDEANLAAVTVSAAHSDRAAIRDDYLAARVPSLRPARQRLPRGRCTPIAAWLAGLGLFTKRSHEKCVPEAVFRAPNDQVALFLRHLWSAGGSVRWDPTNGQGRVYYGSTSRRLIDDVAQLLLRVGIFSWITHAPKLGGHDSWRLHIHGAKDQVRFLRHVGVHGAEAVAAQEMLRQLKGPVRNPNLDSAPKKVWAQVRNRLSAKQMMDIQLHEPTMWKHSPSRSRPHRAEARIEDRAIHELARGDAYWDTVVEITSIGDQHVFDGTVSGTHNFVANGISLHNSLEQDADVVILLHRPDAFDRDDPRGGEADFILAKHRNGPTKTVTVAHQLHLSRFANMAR

[30] = molecular target: T5, Protein RecA (Mycobacterium tuberculosis, UniProt P9WHJ3); test: Fluorescence Cell-Free Homogeneous Dose Retest to Identify Inhibitors of RecA-Intein Splicing Activity. [Related pubchem assays (depositor defined):AID2097, AID2223, AID489010, AID492950]; format: functional
T5 sequence (P9WHJ3 whole entry): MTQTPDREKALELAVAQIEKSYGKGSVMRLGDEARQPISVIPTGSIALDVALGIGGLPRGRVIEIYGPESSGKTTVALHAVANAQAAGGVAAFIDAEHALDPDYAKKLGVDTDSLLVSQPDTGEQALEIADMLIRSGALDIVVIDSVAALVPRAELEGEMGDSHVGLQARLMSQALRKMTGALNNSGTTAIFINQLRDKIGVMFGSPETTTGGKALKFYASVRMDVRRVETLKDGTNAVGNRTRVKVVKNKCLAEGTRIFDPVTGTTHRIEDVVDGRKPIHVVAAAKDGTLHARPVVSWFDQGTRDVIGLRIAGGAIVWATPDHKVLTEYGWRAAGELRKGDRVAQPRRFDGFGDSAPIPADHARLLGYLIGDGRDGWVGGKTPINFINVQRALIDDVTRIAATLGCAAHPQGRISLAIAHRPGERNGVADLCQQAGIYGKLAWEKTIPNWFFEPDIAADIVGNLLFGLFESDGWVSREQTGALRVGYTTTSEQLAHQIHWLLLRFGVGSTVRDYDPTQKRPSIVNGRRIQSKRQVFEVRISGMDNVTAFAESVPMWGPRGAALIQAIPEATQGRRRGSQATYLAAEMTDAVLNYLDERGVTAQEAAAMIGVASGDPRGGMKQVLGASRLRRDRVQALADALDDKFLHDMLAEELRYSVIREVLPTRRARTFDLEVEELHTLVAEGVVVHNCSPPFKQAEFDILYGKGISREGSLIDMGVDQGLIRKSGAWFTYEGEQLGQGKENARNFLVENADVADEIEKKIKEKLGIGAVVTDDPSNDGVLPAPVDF

[31] = system: INS1; test: INS-1E survival protection against cytokine death – cell-based, luminescence, retest, dose response (AID 449756); format: functional; conditions: Rattus norvegicus;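 further: cell death triggered by IL-1 beta plus TNF-alpha plus IFN-gamma mixture; protective hits raise ATP signal compared with cytokine alone wells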
[32] = viability loss in Vero cells – cytotoxicity control for Vif-APOBEC3G degradation inhibitor project, dose response (AID 1117358); format: functional; conditions: Vero

For `CC(=O)OC(C)(C)/C=C/C(=O)C(C)(O)C1[C@H](O)C[C@@]2(C)C3CC=C4C(CC[C@@H](O)C4(C)C)[C@]3(CO)C(=O)C[C@]12C` (stereo not given in full), the EC50 [1] was < 0.1 µM (active), the EC50 [2] was 0.083 µM (active) and the EC50 [3] was 0.08 µM (active). The EC50 [4] was < 0.1 µM (active), the EC50 [5] was < 0.1 µM (active) and the EC50 [6] was 0.33 µM (active). For the same molecule, the EC50 [7] was 8.65 µM (active), the EC50 [8] was 0.082 µM (active) and the AC50 [9] was < 0.26 µM (active).
With `CCOC1Cc2ccccc2N(C(N)=O)c2ccccc21` (stereo not given) the EC50 [10] was > 100 µM (not active).
In the case of `CCc1c(C(=O)O)[nH]c2ccc(Br)cc12`, the IC50 [11] is reported as 6.41 µM (active), the IC50 [12] is reported as 7.33 µM (active) and the AC50 [13] is reported as 11.2 µM (inconclusive). The IC50 [14] was 5.95 µM (active) and the IC50 [15] was > 138 µM (inactive).
With `O=C(OCn1ncc(Br)c(Br)c1=O)c1ccc(F)cc1` the IC50 [16] was 10.3 µM (inactive), the EC50 [1] was > 120 µM (not active) and the EC50 [17] was > 32 µM (inactive). For the same molecule, the EC50 [18] was > 79.4 µM (inactive), the EC50 [19] was > 32 µM (inactive) and the EC50 [4] was 5.79 µM (active). The EC50 [20] was > 79.4 µM (not active), the EC50 [5] was > 120 µM (not active) and the IC50 [21] was 5.05 µM (active). For the same molecule, the CC50 [22] was 9.1 µM (active), the IC50 [23] was 18.8 µM (active) and the EC50 [24] was 72.3 µM (not active). For the same molecule, the EC50 [25] was > 31.5 µM (inactive), the IC50 [26] was 1.66 µM (active) and the IC50 [27] was 6.83 µM. The IC50 [28] was 13.6 µM (not active), the AC50 [29] was 2.02 µM (active) and the EC50 [30] was 0.473 µM (active). The AC50 [31] was 4.94 µM (active) and the CC50 [32] was 8.69 µM (active).
